Measured values published in patent US12213955B2 (priority 2017, dated 2025).
Read-outs that look alike come from different tables or passages of the source.

Legend:
MERS-CoV [1] = test: microbe, parasite or virus in culture; type: cell-based
MERS-CoV [2] = type: cell-based, MERS-CoV (HCoV-EMC/2012)
MERS-CoV [3] = type: cell-based
MERS-CoV [4] = type: cell-based, MERS-CoV (HCoV-EMC/2012); remark: listed apart in the source
[5] = system: MERS-CoV nucleoprotein (NP); type: cell-based
MERS-CoV [6] = type: cell-based; remark: listed apart in the source
MERS-CoV [7] = type: cell-based; remark: listed apart in the source
MERS-CoV [8] = type: cell-based; remark: listed apart in the source
TNF-α, IL-1β, IL-8 = type: cell-based, human
MERS-CoV [9] = type: cell-based; remark: listed apart in the source
MERS-CoV [10] = type: cell-based; remark: listed apart in the source
MERS-CoV [11] = settings: mouse, in vivo
MERS-CoV [12] = type: cell-based, MERS-CoV (HCoV-EMC/2012); remark: listed apart in the source
SARS-CoV = type: cell-based, SARS-CoV (GZ50)
Zika virus (ZIKV) = type: cell-based, ZIKV (Puerto Rico strain PRVABC59)
enterovirus-A71 (EV-A71) = type: cell-based, Enterovirus A71 (SZ/HK08-5)
[13] = system: human adenovirus type 5 (AdV5); type: cell-based
Influenza A(H7N9) virus = settings: mouse, in vivo
MERS-CoV [14] = type: cell-based; remark: listed apart in the source
[15] = system: TK, CMV and SV40 promoters; type: cell-based
MERS-CoV [16] = type: cell-based; remark: listed apart in the source
Calu-3 cells = type: cell-based, human
Huh7 cells = type: cell-based, human
[17] = system: fatty acid and cholesterol synthesis genes; type: cell-based, human
MERS-CoV [18] = type: cell-based; remark: listed apart in the source
n-SREBP1 = target: T1, n-SREBP1 (Homo sapiens, UniProt P36956); test: SREBP1 DNA (SRE) binding activity assay; type: biochemical
T1 construct: requires cleavage of pre-SREBPs to release the nuclear form (n-SREBPs); endogenous in cells; host or cells: Huh7 nuclear extract
T1 sequence (P36956 1-490 limits assumed): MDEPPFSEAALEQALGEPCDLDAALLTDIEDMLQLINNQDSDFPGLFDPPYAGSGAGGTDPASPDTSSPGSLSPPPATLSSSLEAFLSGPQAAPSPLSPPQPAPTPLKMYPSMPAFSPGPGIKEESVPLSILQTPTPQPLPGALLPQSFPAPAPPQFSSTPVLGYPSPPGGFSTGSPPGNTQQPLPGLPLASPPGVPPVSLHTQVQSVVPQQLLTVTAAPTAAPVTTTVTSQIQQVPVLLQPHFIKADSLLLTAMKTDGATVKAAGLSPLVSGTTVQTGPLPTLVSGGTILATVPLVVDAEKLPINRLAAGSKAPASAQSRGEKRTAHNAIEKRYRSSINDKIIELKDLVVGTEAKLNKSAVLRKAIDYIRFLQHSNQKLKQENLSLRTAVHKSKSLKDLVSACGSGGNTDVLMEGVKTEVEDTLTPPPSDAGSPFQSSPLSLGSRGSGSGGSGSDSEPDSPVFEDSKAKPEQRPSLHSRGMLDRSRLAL

n-SREBP2 = target: T2, n-SREBP2 (Homo sapiens, UniProt Q12772); test: SREBP2 DNA (SRE) binding activity assay; type: biochemical; settings: dose-dependent
T2 construct: requires cleavage of pre-SREBPs to release the nuclear form (n-SREBPs); endogenous in cells; Huh7 in the sister assay
T2 sequence (Q12772 1-484 limits assumed): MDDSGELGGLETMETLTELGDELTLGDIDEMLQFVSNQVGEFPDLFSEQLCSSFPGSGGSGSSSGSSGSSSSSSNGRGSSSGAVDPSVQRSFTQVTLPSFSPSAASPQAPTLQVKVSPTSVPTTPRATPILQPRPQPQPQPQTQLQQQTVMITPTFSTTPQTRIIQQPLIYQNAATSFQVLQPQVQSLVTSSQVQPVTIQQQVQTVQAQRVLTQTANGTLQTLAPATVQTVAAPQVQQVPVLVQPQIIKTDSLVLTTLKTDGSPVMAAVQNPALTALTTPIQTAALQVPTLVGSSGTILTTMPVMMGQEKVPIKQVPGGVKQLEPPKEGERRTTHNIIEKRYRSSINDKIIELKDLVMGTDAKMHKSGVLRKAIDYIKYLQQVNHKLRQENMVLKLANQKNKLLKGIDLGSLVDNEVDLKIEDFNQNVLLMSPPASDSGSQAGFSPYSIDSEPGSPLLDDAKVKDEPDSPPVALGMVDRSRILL

HMGCS promoter = type: cell-based, hamster
FAS-promoter = type: cell-based
MERS-CoV [19] = type: cell-based; remark: listed apart in the source
[20] = system: double-membrane vesicles (DMVs); type: cell-based, African green monkey
[21] = mouse models, reported [43]; cited from earlier work
MERS-CoV [22] = type: cell-based; remark: listed apart in the source
[23] = Middle East respiratory syndrome-related coronavirus, read-out: IC50 anti-MERS-CoV activity

Which IC50 (MERS-CoV [1]; [23]) does the source give for `CC1(C)CCC(C)(C)c2cc(NC(=O)c3ccc(C(=O)O)cc3)ccc21` [Tamibarotene] here?
Its IC50 is 0.32 ± 0.026 µM.

For `C=C1CC[C@H](O)C/C1=C/C=C1\CCC[C@]2(C)[C@@H]([C@H](C)CCCC(C)(C)O)CC[C@@H]12` [25-Hydroxyvitamin D3], which “cell protection against MERS-CoV infection” value (MERS-CoV [2]) is on record?
The value was “protected Huh7 cells against MERS-CoV infection”.

Which IC50 (MERS-CoV [1]; [23]) does the source give for `C=C(c1ccc(C(=O)O)cc1)c1cc2c(cc1C)C(C)(C)CCC2(C)C` [bexarotene] here?
Its IC50 is 0.875 ± 0.015 µM.

For PF429242, which “reduction in viral titer” value (MERS-CoV [3]) is on record?
Its value is “about 1 log PFU/ml”.

With `CC1(C)CCC(C)(C)c2cc(C(=O)Nc3ccc(C(=O)O)cc3)ccc21` [AM580] as the compound, how does the “cell protection against MERS-CoV infection” value (MERS-CoV [2]) read?
Its value is “protected cells against infection”.

And the “reduction of viral titer in the cell supernatant” value (MERS-CoV [4])?
The value was > 3 logs.

What about the “expression of MERS-CoV nucleoprotein (NP)” value [5] of the same compound?
The value was “dramatically decreased”.

What about the “MERS-CoV NP-positive cells” value (MERS-CoV [6]) of the same compound?
Its value is 5.38%.

And the “immunofluorescence staining for MERS-CoV NP” value (MERS-CoV [7])?
The value was “near-complete suppression of virus infection”.

What about the “MERS-CoV replication in multiple cell types” value (MERS-CoV [8]) of the same compound?
The value was “reduce MERS-CoV replication in multiple cell types”.

What about the “virus-induced pro-inflammatory cytokine activation” value (TNF-α, IL-1β, IL-8) of the same compound?
Its value is “suppress virus-induced pro-inflammatory cytokine activation”.

And the IC50 (MERS-CoV [1]; read-out: IC50 against MERS-CoV infection)?
Its IC50 is < 1 µM.

And the “PFU in intestinoid culture supernatant” value (MERS-CoV [9])?
The value was “no PFU were detectable”.

What about the “expression of viral NP in intestinoids” value (MERS-CoV [9]) of the same compound?
The value was “markedly decreased expression of viral NP”.

And the “reduction of viral titer relative to DMSO-treated control intestinoids” value (MERS-CoV [9])?
The value was “approximately 6 log10 PFU/ml”.

And the “MERS-CoV NP expression in epithelial cells of terminal bronchioles” value (MERS-CoV [10])?
The value was “marked reduction in MERS-CoV NP expression”.

And the “alveolar damage and interstitial inflammatory infiltration in lung tissues” value (MERS-CoV [11])?
The value was “significantly improved”.

And the “mean body weight vs DMSO-treated control mice” value (MERS-CoV [11])?
Its value is “generally higher”.

What about the “reduction of viral RNA content of brain tissues vs DMSO-treated control” value (MERS-CoV [11]) of the same compound?
The value was 4 log10.

What about the “viral RNA content in lung tissues vs DMSO-treated control” value (MERS-CoV [11]) of the same compound?
Its value is “significantly (p<0.01) lower”.

And the survival (MERS-CoV [11]; ip, 12.5 mg/kg/day)?
Its survival is 100%.

What about the “selectivity index (CC50/IC50)” value (MERS-CoV [12]) of the same compound?
Its value is 507.

And the “concentrations inhibiting replication of SARS-CoV” value (SARS-CoV)?
Its value is “nanomolar to low micromolar”.

What about the “selectivity index (CC50/IC50)” value (SARS-CoV) of the same compound?
Its value is 114.

And the “concentrations inhibiting replication of ZIKV” value (Zika virus (ZIKV))?
Its value is “nanomolar to low micromolar”.

And the “concentrations inhibiting replication of EV-A71” value (enterovirus-A71 (EV-A71))?
The value was “nanomolar to low micromolar”.

What about the “concentrations inhibiting replication of AdV5” value [13] of the same compound?
The value was “nanomolar to low micromolar”.

And the lung histopathology (Influenza A(H7N9) virus)?
The lung histopathology was “ameliorated virus-associated pulmonary inflammatory infiltration and bronchopneumonia”.

And the mean body weight (Influenza A(H7N9) virus)?
The mean body weight was “gradually rebounded starting on day 8 post-challenge”.

What about the “mean viral RNA load in lung tissues vs DMSO-treated control” value (Influenza A(H7N9) virus) of the same compound?
The value was “significantly (p<0.01) lower”.

And the survival rate (Influenza A(H7N9) virus)?
Its survival rate is 60%.

And the “antiviral potency of AM580 with RAR-α antagonist ER50891” value (MERS-CoV [14])?
The value was “did not diminish the antiviral potency”.

What about the “transactivation of TK, CMV and SV40 promoters” value [15] of the same compound?
The value was “did not inhibit transactivation of promoters”.

What about the “MERS-CoV attachment or internalization” value (MERS-CoV [16]) of the same compound?
Its value is “did not interfere with MERS-CoV attachment or internalization”.

What about the “virus-induced perturbation of lipid homeostasis (lipidome)” value (Calu-3 cells) of the same compound?
The value was “antagonized this virus-induced perturbation of lipid homeostasis”.

What about the “accumulation of lipid droplets and cholesterol” value (Huh7 cells) of the same compound?
The value was “significantly reduced their production”.

What about the “cholesterol synthetic pathway genes with reduced mRNA expression (10/12)” value [17] of the same compound?
The value was 83.3%.

What about the “fatty acid metabolism genes with significant decreases in mRNA expression (13/17)” value [17] of the same compound?
The value was 76.5%.

What about the “loss of antiviral potency with increased n-SREBPs” value (MERS-CoV [18]) of the same compound?
The value was “about 1 log10 unit”.

And the “binding of n-SREBP1 with its SRE” value (n-SREBP1; Huh7 nuclear extraction, 20 μM)?
The value was “inhibited binding”.

What about the “binding partner: n-SREBP1 or SRE (pre-incubation)” value (n-SREBP1; pre-incubation 2 h) of the same compound?
Its value is “bind with n-SREBP1 rather than SRE”.

And the “binding of n-SREBP2 with its SRE” value (n-SREBP2)?
The value was “inhibited binding”.

And the “HMGCS-promoter-Luc reporter gene activity” value (HMGCS promoter)?
The value was “concentration-dependent inhibition”.

And the “FAS-promoter-Luc reporter gene activity” value (FAS-promoter)?
Its value is “concentration-dependent inhibition”.

And the “anti-MERS-CoV activity (viral yield)” value (MERS-CoV [19])?
Its value is “showed anti-MERS-CoV activity”.

And the “virus yield on addition of sodium palmitate” value (MERS-CoV [19])?
Its value is “increased the virus yield”.

And the DMV formation [20]?
Its DMV formation is “no DMVs were noted”.

And the palmitoylated-HA level (hemagglutinin (HA))?
The palmitoylated-HA level was “Reduced levels of palmitoylated-HA”.

What about the “total HA protein” value (hemagglutinin (HA)) of the same compound?
The value was “no impact on protein synthesis”.

And the CC50 (different cell lines)?
The CC50 was 100 to 200 µM.

What about the teratogenicity [21] of the same compound?
The teratogenicity was “teratogenic effects”.

Which results are given for `CCCCCCCCCCCCCCC(Br)C(=O)O` (stereo not shown) [2-BP]?
palmitoylated-HA level (hemagglutinin (HA)): Reduced levels of palmitoylated-HA; total HA protein (hemagglutinin (HA)): no impact on protein synthesis; MERS-CoV replication (MERS-CoV [22]): inhibited MERS-CoV replication in a dose-dependent manner

Which “reduction in viral titer” value (MERS-CoV [3]) does the source give for `C=C(C)[C@@H]1CC[C@]2(CO)CC[C@]3(C)[C@H](CC[C@@H]4[C@@]5(C)CC[C@H](O)C(C)(C)[C@@H]5CC[C@]43C)[C@@H]12` [betulin] here?
The value was “about 1 log PFU/ml”.
